Reference: patent publication US20120220581A1, “IMIDAZO[1,2-b]PYRIDAZINE DERIVATIVES AND THEIR USE AS PDE10 INHIBITORS” (Janssen-Cilag, S.A., priority 2009, published 2012)
Read-outs that look alike come from different tables or passages of the source.

Assays:
PDE10 = target: T1, PDE10 (Rattus norvegicus, UniProt Q9QYJ6); assay: PDE10 occupancy ([3H]-MP-10, striatum); format: in vivo; conditions: rat; for ED50: dose response; for receptor occupancy at 10 mg/kg: single dose 10 mg/kg, subcutaneous, read-out: SD sc % occupancy at 10 mg/kg
T1 construct: from tissue; host or cells: rat brain sections, striatum (in vivo dosing, ex vivo autoradiography)
T1 sequence (Q9QYJ6 1-794): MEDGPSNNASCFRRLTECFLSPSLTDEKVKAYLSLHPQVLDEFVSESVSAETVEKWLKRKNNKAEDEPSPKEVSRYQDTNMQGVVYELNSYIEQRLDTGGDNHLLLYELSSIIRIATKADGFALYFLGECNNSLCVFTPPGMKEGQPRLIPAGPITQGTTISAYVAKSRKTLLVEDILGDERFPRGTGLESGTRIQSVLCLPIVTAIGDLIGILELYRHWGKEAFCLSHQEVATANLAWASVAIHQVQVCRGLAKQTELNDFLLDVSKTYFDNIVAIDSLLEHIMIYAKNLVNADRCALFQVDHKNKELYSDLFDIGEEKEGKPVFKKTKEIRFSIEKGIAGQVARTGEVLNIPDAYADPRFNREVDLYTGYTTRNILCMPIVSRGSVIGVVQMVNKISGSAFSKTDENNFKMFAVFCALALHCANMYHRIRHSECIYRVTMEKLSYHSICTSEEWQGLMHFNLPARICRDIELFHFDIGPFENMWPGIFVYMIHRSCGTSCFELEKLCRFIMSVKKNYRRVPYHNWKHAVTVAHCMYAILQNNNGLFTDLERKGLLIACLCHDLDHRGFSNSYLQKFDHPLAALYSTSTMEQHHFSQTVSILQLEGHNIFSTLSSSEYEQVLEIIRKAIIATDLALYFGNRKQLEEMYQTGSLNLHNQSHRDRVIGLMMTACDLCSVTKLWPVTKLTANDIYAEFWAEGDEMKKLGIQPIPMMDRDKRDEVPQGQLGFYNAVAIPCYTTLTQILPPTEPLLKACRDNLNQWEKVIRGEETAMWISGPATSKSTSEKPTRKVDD
Outline: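 Male Wistar rats (200 g) dosed s.c. or p.o.; occupancy measured 1 h post-dose. [^3H]-MP-10 (10 μCi/animal) given i.v. 30 min before sacrifice.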

PDE5A3 = PDE5A3 (Homo sapiens, UniProt O76074); assay: In vitro PDE selectivity assay (SPA), PDE5A3; format: biochemical; conditions: hPDE5A3; read-out: PDE 5A3 (expressed as pIC50) (converted)
Outline: (§1)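 Inhibition of each PDE isoform was measured by scintillation proximity assay with ³H-cyclic nucleotide substrate, using incubation buffer, substrate concentration, incubation time and stop solution adapted per isoform. Compounds were tested in dose-response against 1% DMSO controls and enzyme-free blanks. IC50 came from a least-squares fit of blank-subtracted % of control versus concentration.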

PDE4D3 = PDE4D3 (Homo sapiens, UniProt Q08499); assay: In vitro PDE selectivity assay (SPA), PDE4D3; format: biochemical; conditions: hPDE4D3; read-out: PDE 4D3 (expressed as pIC50) (converted)
Sequence of PDE4D3 (Q08499 1-673 isoform Q08499-2): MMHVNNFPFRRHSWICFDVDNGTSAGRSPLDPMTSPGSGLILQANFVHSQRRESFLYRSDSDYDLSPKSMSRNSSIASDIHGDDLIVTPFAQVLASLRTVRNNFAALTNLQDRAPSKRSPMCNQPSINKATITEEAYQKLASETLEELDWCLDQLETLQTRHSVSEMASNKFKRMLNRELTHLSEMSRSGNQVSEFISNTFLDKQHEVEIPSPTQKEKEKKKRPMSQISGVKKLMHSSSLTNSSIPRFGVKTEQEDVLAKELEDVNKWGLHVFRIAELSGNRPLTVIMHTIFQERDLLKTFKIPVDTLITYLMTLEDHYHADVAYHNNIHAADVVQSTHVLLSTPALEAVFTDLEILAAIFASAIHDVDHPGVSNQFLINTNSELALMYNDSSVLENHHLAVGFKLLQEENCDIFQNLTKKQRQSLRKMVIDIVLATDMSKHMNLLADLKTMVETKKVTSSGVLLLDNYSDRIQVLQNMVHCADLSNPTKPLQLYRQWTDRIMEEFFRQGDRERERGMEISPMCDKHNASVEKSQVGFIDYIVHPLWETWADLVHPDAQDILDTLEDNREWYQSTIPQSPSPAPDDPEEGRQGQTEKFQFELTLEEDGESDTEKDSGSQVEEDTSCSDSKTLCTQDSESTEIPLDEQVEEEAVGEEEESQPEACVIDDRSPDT
Outline: as §1

[1] = system: apomorphine-induced stereotypy in rats; assay: Apomorphine-induced stereotypy in rats (APO); format: in vivo; conditions: Rattus norvegicus; dose at which 50% of the tested animals show the effect; ≧: active in 30% of the animals at the indicated dose; ≦: active in 60%
Experimental: Apomorphine (1.0 mg/kg, i.v.)-induced stereotypy (compulsive sniffing, licking, chewing) was scored every 5 min over the first hour after injection of apomorphine, following a 1 hour interval pre-treatment with the test compound. The score system was: (3) pronounced, (2) moderate, (1) slight, and (0) absent.

[2] = system: conditioned avoidance response in rats; assay: Conditioned avoidance response (CAR) test; format: in vivo; conditions: Rattus norvegicus
From the text: The apparatus consisted of an inner box surrounded by an outer box. The inner box was composed of four walls of transparent, synthetic material (length×width×height: 30×30×30 cm), an open top, and a grid floor made of 15 pairs of iron bars (2 mm diameter; 6 mm inter-bar distance). Odd and even bars were connected with a source of alternative current (1.0 mA; Coulbourn Instruments Solid State Shocker/Distributor), which could be interrupted by a switch. The outer box was composed of the same material (length×width×height: 40×40×36 cm), also with an open top, with a distance of 5 cm between the inner and outer box on all sides. To decrease the amount of environmental stimuli, three walls of the outer box were made non-transparent. The front wall was left transparent to allow the necessary inspection of the animal during the test. The upper edge of the outer and inner box served as a target for the rats on which to jump with fore- and hind-paws, respectively.
From their arrival in the laboratory on the experimental day, male Wiga Wistar rats (230±30 g) were housed in individual cages provided with bedding material.
The rats were tested 3 times, i.e. at 60, 90 and 120 min after the injection of test compound or solvent. Latency to avoidance was recorded. The median avoidance response obtained over the three experimental sessions for each rat were used for further calculations.

[3] = sc, subcutaneous administration, read-out: PDE10 in vivo occupancy ED50 sc
[4] = oral administration, read-out: PDE10 in vivo occupancy ED50 po

Structure (SMILES)	ED50 (PDE10; [3]) [mg/kg]	receptor occupancy at 10 mg/kg (PDE10; sc) [%]	ED50 (PDE10; [4]) [mg/kg]	IC50 (PDE5A3) [µM]	IC50 (PDE4D3) [µM]	ED50 [1] [mg/kg]	ED50 [2] [mg/kg]
COCCc1ccc(-c2c(C)nc3c(N4CCOCC4)ccnn23)cn1 [compound 1, 3-[6-(2-methoxyethyl)-3-pyridinyl]-2-methyl-8-(4-morpholinyl)-imidazo[1,2-b]pyridazine]	0.48	76	1.4	17	30.9	1.3	4.7
COCCOc1ccc(-c2c(C)nc3c(-c4ccncc4)ccnn23)cn1 [compound 21, 3-[6-(2-methoxyethoxy)-3-pyridinyl]-2-methyl-8-(4-pyridinyl)-imidazo[1,2-b]pyridazine]	2.6	61	14	19.1	28.2	1.5	5.4
